Consider eight compounds from ChEMBL document CHEMBL1131743, “Structure-activity relationship for a series of 2-substituted 1,2,3,4-tetrahydro-9H-pyrido[3,4-b]indoles: potent subtype-selective inhibitors of N-methyl-D-aspartate (NMDA) receptors” (Bioorg Med Chem Lett, 1999).

In test [1] the target is Glutamate NMDA receptor; Grin1/Grin2b (Rattus norvegicus, UniProt P35439+Q00960). The test is described as follows: Antagonist activity against rat 1A/2B subtype of N-methyl-D-aspartate (NMDA) receptor in xenopus oocytes. The format is functional, cell-based, Oocyte.
Glutamate NMDA receptor; Grin1/Grin2b, sequence (Q00960 whole entry, other chains not shown): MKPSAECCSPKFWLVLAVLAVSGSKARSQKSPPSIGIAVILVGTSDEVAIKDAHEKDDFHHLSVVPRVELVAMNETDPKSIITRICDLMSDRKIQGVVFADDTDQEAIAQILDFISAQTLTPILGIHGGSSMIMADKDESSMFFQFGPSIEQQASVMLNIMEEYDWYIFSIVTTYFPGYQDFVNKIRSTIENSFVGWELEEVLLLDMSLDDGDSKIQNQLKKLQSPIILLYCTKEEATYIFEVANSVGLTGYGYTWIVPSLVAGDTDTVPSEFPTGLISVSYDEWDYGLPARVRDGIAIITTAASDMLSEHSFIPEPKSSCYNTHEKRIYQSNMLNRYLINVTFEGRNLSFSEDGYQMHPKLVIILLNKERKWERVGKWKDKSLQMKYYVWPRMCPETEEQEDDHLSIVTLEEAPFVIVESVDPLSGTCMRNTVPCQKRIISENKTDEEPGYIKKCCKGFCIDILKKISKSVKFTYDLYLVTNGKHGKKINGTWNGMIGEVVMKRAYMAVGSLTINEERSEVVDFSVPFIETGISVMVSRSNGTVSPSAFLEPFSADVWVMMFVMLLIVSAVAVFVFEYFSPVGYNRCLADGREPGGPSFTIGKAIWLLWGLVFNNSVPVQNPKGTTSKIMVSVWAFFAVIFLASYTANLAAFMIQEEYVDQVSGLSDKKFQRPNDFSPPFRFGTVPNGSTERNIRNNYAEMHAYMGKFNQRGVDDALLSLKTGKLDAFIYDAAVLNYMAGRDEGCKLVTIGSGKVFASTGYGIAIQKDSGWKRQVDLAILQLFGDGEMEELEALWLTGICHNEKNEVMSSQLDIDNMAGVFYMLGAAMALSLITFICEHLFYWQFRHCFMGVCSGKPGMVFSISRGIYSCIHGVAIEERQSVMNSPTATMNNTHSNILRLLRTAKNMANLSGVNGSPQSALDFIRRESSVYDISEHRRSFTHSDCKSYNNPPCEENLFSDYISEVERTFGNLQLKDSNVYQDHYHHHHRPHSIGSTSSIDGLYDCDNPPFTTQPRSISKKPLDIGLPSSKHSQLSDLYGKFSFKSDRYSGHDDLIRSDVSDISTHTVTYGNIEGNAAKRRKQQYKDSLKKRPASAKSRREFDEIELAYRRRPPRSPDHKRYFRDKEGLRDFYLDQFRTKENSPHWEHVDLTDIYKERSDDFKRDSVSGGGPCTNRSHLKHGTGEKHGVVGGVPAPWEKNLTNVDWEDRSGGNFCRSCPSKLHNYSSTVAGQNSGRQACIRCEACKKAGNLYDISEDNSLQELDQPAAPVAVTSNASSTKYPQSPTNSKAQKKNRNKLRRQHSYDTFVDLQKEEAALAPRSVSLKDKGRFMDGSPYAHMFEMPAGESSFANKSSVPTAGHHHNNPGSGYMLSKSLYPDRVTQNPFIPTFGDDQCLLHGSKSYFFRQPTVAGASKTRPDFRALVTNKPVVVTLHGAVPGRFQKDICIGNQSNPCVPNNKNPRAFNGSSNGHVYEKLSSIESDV
Test [2] can be described thus: Antagonist activity against rat 1A/2C subtype of N-methyl-D-aspartate (NMDA) receptor was determined by electrical assay in xenopus oocytes. As to conditions: Oocyte. The format is functional, cell-based.
Test [3] is described as follows: Antagonist activity against rat 1A/2A subtype of N-methyl-D-aspartate (NMDA) receptor was determined by electrical assay in xenopus oocytes. The format is functional, cell-based. As to conditions: Oocyte.

Compound `Oc1ccc(CCCNCCCCc2ccccc2)cc1` displayed an IC50 in test [1] of 0.02 µM.
On to `Oc1ccc(CCCN2CCc3c([nH]c4ccccc34)C2)cc1`, for which the IC50 is 170 µM in test [2], 42 µM in test [3] and 0.087 µM in test [1].
For `COc1ccc2[nH]c3c(c2c1)CCN(CCCCc1ccccc1)C3` the same measures were 132 µM, 110 µM and 14 µM.
The corresponding values for `Oc1ccc(CCCCN2CCc3c([nH]c4ccccc34)C2)cc1` are 150 µM, 58 µM and 0.56 µM.
For `Oc1ccc2[nH]c3c(c2c1)CCN(CCCCc1ccccc1)C3` the same measures were 180 µM, 97 µM and 0.14 µM.
As to `c1ccc(CCCCN2CCc3c([nH]c4ccccc34)C2)cc1`, the values for the IC50 in test [2], in test [3] and in test [1] were 65 µM, 68 µM and 3.3 µM, respectively.
`Oc1ccc(CCN2CCc3c([nH]c4ccccc34)C2)cc1`: the figures for the IC50 in test [2], in test [3] and in test [1] were 140 µM, 74 µM and 3.8 µM, respectively.
For `Oc1ccc2c3c([nH]c2c1)CN(CCCCc1ccccc1)CC3` the same measures were 67 µM, 57 µM and 0.05 µM.
